From ChEMBL document CHEMBL1201862, “PubChem BioAssay data set” (2004)
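Dose response: 5 concentrations. Exposure: 48 h. Format: 96-well plates. Endpoint: linear interpolation; highest concentration if not reached. At the GI50, growth is halved.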 The source made the active and inactive calls. No stated cut-off is given here; in the data, active = GI50 up to about 1.1 µM and inactive = higher.

Key:
Test in all cases: DTP human tumour cell line panel, 48 h
[1] = tested on: A549
[2] = tested on: ACHN
[3] = tested on: CCRF-CEM
[4] = tested on: COLO 205
[5] = tested on: DLD-1
[6] = tested on: HCC 2998
[7] = tested on: HCT-116
[8] = tested on: HL-60
[9] = tested on: HOP-18
[10] = tested on: HOP-62
[11] = tested on: HOP-92
[12] = tested on: HT-29
[13] = tested on: IGROV-1
[14] = tested on: K562
[15] = tested on: KM12
[16] = tested on: LXFL 529
[17] = tested on: M19-MEL
[18] = tested on: MOLT-4
[19] = tested on: Malme-3M
[20] = tested on: NCI-H226
[21] = tested on: NCI-H23
[22] = tested on: NCI-H460
[23] = tested on: NCI-H522
[24] = tested on: OVCAR-3
[25] = tested on: OVCAR-5
[26] = tested on: OVCAR-8
[27] = tested on: RPMI-8226
[28] = tested on: SF-268
[29] = tested on: SF-295
[30] = tested on: SF-539
[31] = tested on: SK-MEL-28
[32] = tested on: SK-MEL-2
[33] = tested on: SK-MEL-5
[34] = tested on: SK-OV-3
[35] = tested on: SNB-19
[36] = tested on: SNB-75
[37] = tested on: SR
[38] = tested on: SW-620
[39] = tested on: TK-10
[40] = tested on: U-251
[41] = tested on: UACC-257
[42] = tested on: UACC-62
[43] = tested on: UO-31
[44] = tested on: A498
[45] = tested on: DMS-114
[46] = tested on: KM-20L2
[47] = tested on: M14
[48] = tested on: OVCAR-4
[49] = tested on: RXF 393
[50] = tested on: SNB-78
[51] = tested on: 786-0
[52] = tested on: BT-549
[53] = tested on: CAKI-1
[54] = tested on: DU-145
[55] = tested on: EKVX
[56] = tested on: HCT-15
[57] = tested on: Hs-578T
[58] = tested on: LOX IMVI
[59] = tested on: MCF7
[60] = tested on: MDA-MB-231
[61] = tested on: MDA-MB-435
[62] = tested on: MDA-N
[63] = tested on: NCI/ADR-RES
[64] = tested on: PC-3
[65] = tested on: SN12C
[66] = tested on: T47D
[67] = tested on: DMS-273

## CC(=O)Nc1ccc(C(=O)NN2C(=O)C(Cl)C2/C=C/c2ccccc2)cc1 (configuration not stated)
[1]
  GI50: > 100 µM (inactive)
[2]
  GI50: > 100 µM (inactive)
[3]
  GI50: > 100 µM (inactive)
[4]
  GI50: > 100 µM (inactive)
[5]
  GI50: > 100 µM (inactive)
[6]
  GI50: > 100 µM (inactive)
[7]
  GI50: > 100 µM (inactive)
[8]
  GI50: > 100 µM (inactive)
[9]
  GI50: > 100 µM (inactive)
[10]
  GI50: > 100 µM (inactive)
[11]
  GI50: > 100 µM (inactive)
[12]
  GI50: > 100 µM (inactive)
[13]
  GI50: > 100 µM (inactive)
[14]
  GI50: > 100 µM (inactive)
[15]
  GI50: > 100 µM (inactive)
[16]
  GI50: > 100 µM (inactive)
[17]
  GI50: > 100 µM (inactive)
[18]
  GI50: > 100 µM (inactive)
[19]
  GI50: > 100 µM (inactive)
[20]
  GI50: > 100 µM (inactive)
[21]
  GI50: > 100 µM (inactive)
[22]
  GI50: > 100 µM (inactive)
[23]
  GI50: > 100 µM (inactive)
[24]
  GI50: > 100 µM (inactive)
[25]
  GI50: > 100 µM (inactive)
[26]
  GI50: > 100 µM (inactive)
[27]
  GI50: > 100 µM (inactive)
[28]
  GI50: > 100 µM (inactive)
[29]
  GI50: > 100 µM (inactive)
[30]
  GI50: > 100 µM (inactive)
[31]
  GI50: > 100 µM (inactive)
[32]
  GI50: > 100 µM (inactive)
[33]
  GI50: > 100 µM (inactive)
[34]
  GI50: > 100 µM (inactive)
[35]
  GI50: > 100 µM (inactive)
[36]
  GI50: > 100 µM (inactive)
[37]
  GI50: > 100 µM (inactive)
[38]
  GI50: > 100 µM (inactive)
[39]
  GI50: > 100 µM (inactive)
[40]
  GI50: > 100 µM (inactive)
[41]
  GI50: > 100 µM (inactive)
[42]
  GI50: > 100 µM (inactive)
[43]
  GI50: > 100 µM (inactive)

## CCCCOP(=O)(OCCCC)/C(C#N)=C/c1ccco1
[44]
  GI50: 77.8 µM (inactive)
[2]
  GI50: 95.7 µM (inactive)
[3]
  GI50: 12.4 µM (inactive)
[4]
  GI50: > 100 µM (inactive)
[45]
  GI50: 64.9 µM (inactive)
[7]
  GI50: > 100 µM (inactive)
[8]
  GI50: 22.8 µM (inactive)
[10]
  GI50: > 100 µM (inactive)
[11]
  GI50: 45.3 µM (inactive)
[12]
  GI50: > 100 µM (inactive)
[13]
  GI50: > 100 µM (inactive)
[46]
  GI50: > 100 µM (inactive)
[15]
  GI50: 52.6 µM (inactive)
[16]
  GI50: > 100 µM (inactive)
[47]
  GI50: > 100 µM (inactive)
[17]
  GI50: > 100 µM (inactive)
[19]
  GI50: 94.2 µM (inactive)
[21]
  GI50: > 100 µM (inactive)
[22]
  GI50: > 100 µM (inactive)
[24]
  GI50: 34.7 µM (inactive)
[48]
  GI50: 91.6 µM (inactive)
[25]
  GI50: > 100 µM (inactive)
[27]
  GI50: 45.2 µM (inactive)
[49]
  GI50: 82.8 µM (inactive)
[28]
  GI50: 45.2 µM (inactive)
[29]
  GI50: 51.3 µM (inactive)
[30]
  GI50: > 100 µM (inactive)
[31]
  GI50: > 100 µM (inactive)
[32]
  GI50: > 100 µM (inactive)
[34]
  GI50: > 100 µM (inactive)
[35]
  GI50: 94.6 µM (inactive)
[36]
  GI50: 27.2 µM (inactive)
[50]
  GI50: 43.9 µM (inactive)
[40]
  GI50: > 100 µM (inactive)
[41]
  GI50: 40.1 µM (inactive)
[42]
  GI50: > 100 µM (inactive)
[43]
  GI50: 25.8 µM (inactive)

## Nc1ccccc1C(=O)NC(=O)Nc1ccc(Oc2ncc(Br)cn2)c(Cl)c1
[51]
  GI50: < 0.01 µM (active)
[44]
  GI50: < 0.01 µM (active)
[1]
  GI50: < 0.01 µM (active)
[2]
  GI50: 0.0614 µM (active)
[52]
  GI50: 2.48 µM (inactive)
[53]
  GI50: < 0.01 µM (active)
[4]
  GI50: < 0.01 µM (active)
[5]
  GI50: < 0.01 µM (active)
[45]
  GI50: < 0.01 µM (active)
[54]
  GI50: < 0.0123 µM (active)
[55]
  GI50: 0.247 µM (active)
[6]
  GI50: 0.0116 µM (active)
[7]
  GI50: < 0.01 µM (active)
[56]
  GI50: < 0.01 µM
[8]
  GI50: < 0.01 µM (active)
[9]
  GI50: 13 µM (inactive)
[10]
  GI50: 0.0109 µM (active)
[11]
  GI50: 0.217 µM (active)
[12]
  GI50: < 0.01 µM (active)
[57]
  GI50: < 0.01 µM (active)
[13]
  GI50: < 0.0118 µM (active)
[14]
  GI50: < 0.01 µM (active)
[46]
  GI50: < 0.01 µM (active)
[15]
  GI50: < 0.01 µM (active)
[58]
  GI50: < 0.01 µM (active)
[16]
  GI50: < 0.01 µM (active)
[47]
  GI50: 0.0152 µM (active)
[17]
  GI50: < 0.01 µM (active)
[59]
  GI50: < 0.01 µM (active)
[60]
  GI50: 0.0145 µM (active)
[61]
  GI50: < 0.01 µM (active)
[62]
  GI50: < 0.01 µM (active)
[18]
  GI50: < 0.01 µM (active)
[19]
  GI50: < 0.01 µM (active)
[20]
  GI50: 0.0472 µM (active)
[21]
  GI50: 0.0108 µM (active)
[22]
  GI50: < 0.01 µM (active)
[23]
  GI50: < 0.01 µM (active)
[63]
  GI50: < 0.01 µM (active)
[24]
  GI50: < 0.01 µM (active)
[48]
  GI50: 0.698 µM (active)
[25]
  GI50: 0.438 µM (active)
[26]
  GI50: 0.0119 µM (active)
[64]
  GI50: < 0.01 µM (active)
[27]
  GI50: 0.0182 µM (active)
[49]
  GI50: 0.0261 µM (active)
[28]
  GI50: < 0.01 µM (active)
[29]
  GI50: < 0.01 µM (active)
[30]
  GI50: < 0.01 µM (active)
[31]
  GI50: < 0.01 µM (active)
[32]
  GI50: < 0.0929 µM (active)
[33]
  GI50: < 0.01 µM (active)
[34]
  GI50: < 0.01 µM (active)
[65]
  GI50: 0.0133 µM (active)
[35]
  GI50: 0.0247 µM (active)
[36]
  GI50: < 0.01 µM (active)
[50]
  GI50: < 0.12 µM (active)
[37]
  GI50: < 0.01 µM (active)
[38]
  GI50: < 0.01 µM (active)
[66]
  GI50: 51.8 µM (inactive)
[39]
  GI50: 0.0274 µM (active)
[40]
  GI50: < 0.01 µM (active)
[41]
  GI50: < 0.0259 µM (active)
[42]
  GI50: < 0.01 µM (active)
[43]
  GI50: 0.014 µM (active)

## COc1ccc(/C=C/CN(C)CCc2ccccc2)cc1OC
[51]
  GI50: > 100 µM (inactive)
[1]
  GI50: > 100 µM (inactive)
[2]
  GI50: > 100 µM (inactive)
[4]
  GI50: 52 µM (inactive)
[45]
  GI50: 77.4 µM (inactive)
[67]
  GI50: > 100 µM (inactive)
[55]
  GI50: > 100 µM (inactive)
[6]
  GI50: 32.1 µM (inactive)
[7]
  GI50: 26.4 µM (inactive)
[56]
  GI50: > 100 µM
[11]
  GI50: 4.89 µM (inactive)
[12]
  GI50: 33.5 µM (inactive)
[13]
  GI50: > 100 µM (inactive)
[14]
  GI50: 26.5 µM (inactive)
[46]
  GI50: 42.3 µM (inactive)
[15]
  GI50: > 100 µM (inactive)
[16]
  GI50: 62.1 µM (inactive)
[17]
  GI50: > 100 µM (inactive)
[18]
  GI50: 40.6 µM (inactive)
[19]
  GI50: 62.4 µM (inactive)
[20]
  GI50: > 100 µM (inactive)
[21]
  GI50: > 100 µM (inactive)
[24]
  GI50: 73.3 µM (inactive)
[25]
  GI50: 41.1 µM (inactive)
[26]
  GI50: > 100 µM (inactive)
[27]
  GI50: 59.3 µM (inactive)
[49]
  GI50: 51.2 µM (inactive)
[28]
  GI50: > 100 µM (inactive)
[29]
  GI50: 53.5 µM (inactive)
[31]
  GI50: > 100 µM (inactive)
[32]
  GI50: > 100 µM (inactive)
[33]
  GI50: 59.2 µM (inactive)
[65]
  GI50: 66.1 µM (inactive)
[35]
  GI50: > 100 µM (inactive)
[36]
  GI50: 25.9 µM (inactive)
[50]
  GI50: > 100 µM (inactive)
[38]
  GI50: 97.3 µM (inactive)
[39]
  GI50: 46 µM (inactive)
[40]
  GI50: 86.9 µM (inactive)
[41]
  GI50: 36.1 µM (inactive)
[42]
  GI50: > 100 µM (inactive)
[43]
  GI50: 22.9 µM (inactive)
